Test results taken from PubChem BioAssay (NCI).
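Method: 48-hour compound exposure of cells in 96-well plates, five concentrations, linear interpolation of endpoints. TGI: total growth inhibition.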

System: SR leukemia
Assay: NCI anticancer screen, dose series, 48 h

Point of comparison: C=C1C(=O)O[C@@]23C1CC[C@@H](C)C2CC[C@@]1(C)OC31 (stereo partly drawn), TGI 33.2 µM. Against it:
- O=c1[nH]nc(-c2ccccc2)c2[nH]c(-c3ccccc3)cc12 — higher, > 100 µM
- CC1(C)CNC(=O)C2(C=NC(C)(C)CNC(=O)C3(C=N1)CCCO3)CCCO2 (stereo not drawn) — not separable, > 10 µM

System: SNB-75 CNS
Assay: NCI anticancer screen, dose series, 48 h

Point of comparison: C=C1C(=O)O[C@@]23C1CC[C@@H](C)C2CC[C@@]1(C)OC31 (stereo partly drawn), TGI 8.52 µM. Against it:
- O=c1[nH]nc(-c2ccccc2)c2[nH]c(-c3ccccc3)cc12 — higher, > 100 µM
- CC1(C)CNC(=O)C2(C=NC(C)(C)CNC(=O)C3(C=N1)CCCO3)CCCO2 (stereo not drawn) — higher, > 10 µM
- CC(=S)N=Cc1c(O)cc(C)oc1=O — higher, > 100 µM
- C=c1c(OC)c(OC)c(O)c2c1=c1cc([N+](=O)[O-])cc(OC)c1=N2 — higher, > 100 µM

System: U251 CNS
Assay: NCI anticancer screen, dose series, 48 h

Point of comparison: C=C1C(=O)O[C@@]23C1CC[C@@H](C)C2CC[C@@]1(C)OC31 (stereo partly drawn), TGI 19.3 µM. Against it:
- CC1S/C(=N/c2nnc(-c3ccccc3)o2)NC1=O (stereo not drawn) — higher, > 100 µM
- CC1(C)CNC(=O)C2(C=NC(C)(C)CNC(=O)C3(C=N1)CCCO3)CCCO2 (stereo not drawn) — not separable, > 10 µM
- CC(=S)N=Cc1c(O)cc(C)oc1=O — higher, > 100 µM
- COc1ccc(NC2=CC(=O)C(=O)c3ccccc32)nn1 — 1.6-fold lower, 12.4 µM
- CC1(C(=O)O)CCCC1C(=O)O (stereo not drawn) — higher, > 100 µM
- C=c1c(OC)c(OC)c(O)c2c1=c1cc([N+](=O)[O-])cc(OC)c1=N2 — higher, > 100 µM

System: SNB-19 CNS
Assay: NCI anticancer screen, dose series, 48 h

Point of comparison: C=C1C(=O)O[C@@]23C1CC[C@@H](C)C2CC[C@@]1(C)OC31 (stereo partly drawn), TGI 47.4 µM. Against it:
- O=c1[nH]nc(-c2ccccc2)c2[nH]c(-c3ccccc3)cc12 — higher, > 100 µM
- CC1S/C(=N/c2nnc(-c3ccccc3)o2)NC1=O (stereo not drawn) — higher, > 100 µM
- CC1(C)CNC(=O)C2(C=NC(C)(C)CNC(=O)C3(C=N1)CCCO3)CCCO2 (stereo not drawn) — not separable, > 10 µM
- CC(=S)N=Cc1c(O)cc(C)oc1=O — higher, > 100 µM
- COc1ccc(NC2=CC(=O)C(=O)c3ccccc32)nn1 — 2.6-fold lower, 18.1 µM
- CC1(C(=O)O)CCCC1C(=O)O (stereo not drawn) — higher, > 100 µM
- C=c1c(OC)c(OC)c(O)c2c1=c1cc([N+](=O)[O-])cc(OC)c1=N2 — higher, > 100 µM

System: NCI-H23 lung
Assay: NCI anticancer screen, dose series, 48 h

Point of comparison: COc1ccc(NC2=CC(=O)C(=O)c3ccccc32)nn1, TGI 6.2 µM. Against it:
- C=C1C(=O)O[C@@]23C1CC[C@@H](C)C2CC[C@@]1(C)OC31 (stereo partly drawn) — 3.3-fold higher, 20.6 µM
- O=c1[nH]nc(-c2ccccc2)c2[nH]c(-c3ccccc3)cc12 — higher, > 100 µM
- CC1S/C(=N/c2nnc(-c3ccccc3)o2)NC1=O (stereo not drawn) — higher, > 100 µM
- CC1(C)CNC(=O)C2(C=NC(C)(C)CNC(=O)C3(C=N1)CCCO3)CCCO2 (stereo not drawn) — higher, > 10 µM
- CC(=S)N=Cc1c(O)cc(C)oc1=O — higher, > 100 µM
- CC1(C(=O)O)CCCC1C(=O)O (stereo not drawn) — higher, > 100 µM
- C=c1c(OC)c(OC)c(O)c2c1=c1cc([N+](=O)[O-])cc(OC)c1=N2 — higher, > 100 µM

System: HL-60(TB) leukemia
Assay: NCI anticancer screen, dose series, 48 h

Point of comparison: COc1ccc(NC2=CC(=O)C(=O)c3ccccc32)nn1, TGI 0.898 µM. Against it:
- C=C1C(=O)O[C@@]23C1CC[C@@H](C)C2CC[C@@]1(C)OC31 (stereo partly drawn) — 12-fold higher, 10.6 µM
- O=c1[nH]nc(-c2ccccc2)c2[nH]c(-c3ccccc3)cc12 — higher, > 100 µM
- CC1S/C(=N/c2nnc(-c3ccccc3)o2)NC1=O (stereo not drawn) — higher, > 100 µM
- CC1(C)CNC(=O)C2(C=NC(C)(C)CNC(=O)C3(C=N1)CCCO3)CCCO2 (stereo not drawn) — higher, > 10 µM
- CC(=S)N=Cc1c(O)cc(C)oc1=O — higher, > 100 µM
- CC1(C(=O)O)CCCC1C(=O)O (stereo not drawn) — higher, > 100 µM
- C=c1c(OC)c(OC)c(O)c2c1=c1cc([N+](=O)[O-])cc(OC)c1=N2 — higher, > 100 µM

System: UACC-62 melanoma
Assay: NCI anticancer screen, dose series, 48 h

Point of comparison: COc1ccc(NC2=CC(=O)C(=O)c3ccccc32)nn1, TGI 3.01 µM. Against it:
- C=C1C(=O)O[C@@]23C1CC[C@@H](C)C2CC[C@@]1(C)OC31 (stereo partly drawn) — 9-fold higher, 27.1 µM
- CC1S/C(=N/c2nnc(-c3ccccc3)o2)NC1=O (stereo not drawn) — higher, > 100 µM
- CC1(C)CNC(=O)C2(C=NC(C)(C)CNC(=O)C3(C=N1)CCCO3)CCCO2 (stereo not drawn) — higher, > 10 µM
- CC(=S)N=Cc1c(O)cc(C)oc1=O — higher, > 100 µM
- CC1(C(=O)O)CCCC1C(=O)O (stereo not drawn) — higher, > 100 µM
- C=c1c(OC)c(OC)c(O)c2c1=c1cc([N+](=O)[O-])cc(OC)c1=N2 — higher, > 100 µM

System: OVCAR-8 ovarian
Assay: NCI anticancer screen, dose series, 48 h

Point of comparison: C=C1C(=O)O[C@@]23C1CC[C@@H](C)C2CC[C@@]1(C)OC31 (stereo partly drawn), TGI 56.5 µM. Against it:
- O=c1[nH]nc(-c2ccccc2)c2[nH]c(-c3ccccc3)cc12 — higher, > 100 µM
- CC1S/C(=N/c2nnc(-c3ccccc3)o2)NC1=O (stereo not drawn) — higher, > 100 µM
- CC1(C)CNC(=O)C2(C=NC(C)(C)CNC(=O)C3(C=N1)CCCO3)CCCO2 (stereo not drawn) — not separable, > 10 µM
- CC(=S)N=Cc1c(O)cc(C)oc1=O — higher, > 100 µM
- COc1ccc(NC2=CC(=O)C(=O)c3ccccc32)nn1 — 11-fold lower, 5.35 µM
- CC1(C(=O)O)CCCC1C(=O)O (stereo not drawn) — higher, > 100 µM
